# Laboratory results published in patent US20260248747A1, “PHYSICAL PERFORMANCE AID” (aXichem AB, priority 2023, published 2026).
# Where “and” joins values, the source holds several entries; their conditions need not be identical. Equal entries are not always repeated. Entries after “also recorded” stand apart in the source; their conditions may differ.
# What was measured:
# trained men = conditions: acute 12 mg capsaicin; squat exercise; cited from earlier work
# [1] = 1.2 mg purified capsaicin in gummy format; isokinetic knee extension; cited from earlier work
# [2] = high-dose oral encapsulated capsaicin, 25.8 mg; cited from earlier work
# resistance trained men [3] = tested on: resistance trained men; parameters: species or system human; conditions: in vivo, po
# resistance trained men [4] = tested on: resistance trained men; parameters: species or system human; conditions: in vivo
# resistance trained men [5] = tested on: resistance trained men; parameters: species or system human; conditions: in vivo; remark: listed apart in the source
# resistance trained men [6] = tested on: resistance trained men; parameters: species or system human; conditions: in vivo
# resistance trained men [7] = tested on: resistance trained men; parameters: species or system human; conditions: in vivo; remark: listed apart in the source
# [8] = tested on: healthy men with resistance training experience; parameters: species or system human; conditions: in vivo
# [9] = tested on: healthy men with resistance training experience; parameters: species or system human; conditions: in vivo; remark: listed apart in the source
# [10] = tested on: healthy men with resistance training experience; parameters: species or system human; conditions: in vivo; remark: listed apart in the source
# [11] = tested on: healthy men with resistance training experience; parameters: species or system human; conditions: in vivo; remark: listed apart in the source
molecule,measurement,setting,value
"COc1cc(CNC(=O)CCCC/C=C/C(C)C)ccc1O [capsaicin, 8-methyl-N-vanillyl-trans-6-nonenamide]",number of repetitions until failure,trained men,increased significantly
same,rated perceived exertion overall body (RPE-OB),trained men,reduced
same,total weight lifted,trained men,increased significantly
same,summed torque or fatigue index,[1],did not reach significant differences
same,tolerability after oral supplementation,[2],intestinal discomfort
phenylcapsaicyn,Lactate (% change),resistance trained men [3],663.97 ± 352.36% and 653.16 ± 307.31%
same,"percentage of change for urea values, post-hoc Wilcoxon comparison",resistance trained men [4],significant higher percentage of change for LID compared to PLA
same,Urea,resistance trained men [4]; po,40.77 ± 14.17 mg/dL and 37.48 ± 18.18 mg/dL and 29.77 ± 10.67 mg/dL and 30.31 ± 10.41 mg/dL
same,"AST post values, post-hoc Wilcoxon comparison",resistance trained men [5],significant higher post levels of AST for PLA compared to HD
same,AST,resistance trained men [5]; po,17.40 ± 11.25 U/L and 16.37 ± 11.29 U/L and 27.06 ± 14.66 U/L and 22.39 ± 10.86 U/L
same,AST (% change),resistance trained men [5]; po,119.62 ± 166.08% and 110.21 ± 167.16%
same,"60% fastest velocity, post-hoc Bonferroni comparison",resistance trained men [6],significant differences between LD and PLA
same,60% fastest-V,resistance trained men [6],0.97 ± 0.07 m · s^−1 and 0.96 ± 0.07 m · s^−1
same,Fastest-V,resistance trained men [6],0.87 ± 0.03 m · s^−1 and 0.80 ± 0.06 m · s^−1
same,Mean-Vt,resistance trained men [6],0.61 ± 0.07 m · s^−1 and 0.64 ± 0.07 m · s^−1
same,Repetitions performed in the protocol,resistance trained men [6],24 ± 0.00
same,Slowest-Vt,resistance trained men [6],0.45 ± 0.09 m · s^−1 and 0.49 ± 0.09 m · s^−1
same,Weight,resistance trained men [6],87.69 ± 15.87 kg and 87.57 ± 14.69 kg
same,"maximal velocity loss, post-hoc Bonferroni comparison",resistance trained men [6],significant differences between HD and LD
same,"mean velocity, post-hoc Bonferroni comparison",resistance trained men [6],almost was achieved between HD and PLA
same,"PRS, one-way repeated measures ANOVA between conditions",resistance trained men [7],no differences between conditions
same,"RPE-AM (local RPE in quadriceps), Bonferroni post-hoc comparison",resistance trained men [7],significant differences
same,"RPE-OB, Bonferroni post-hoc analyses between conditions",resistance trained men [7],no significant differences
same,"perceived exertion for the active muscle, RPE-AM",resistance trained men [7],reduced perceived exertion for the active muscle
same,60% load MDF VLA,[8],94.20 ± 12.57% and 92.43 ± 15.57% and 87.66 ± 11.86% and 87.61 ± 11.16% and 89.62 ± 12.28% and 94.85 ± 19.89%
same,60% load MDF VM,[8],93.24 ± 12.84% and 87.62 ± 9.55% and 88.27 ± 13.74% and 87.29 ± 15.23% and 88.62 ± 16.06% and 84.97 ± 10.64%
same,60% load RMS VLA,[8],131.16 ± 36.34% and 144.45 ± 50.27% and 119.38 ± 47.67% and 103.95 ± 49.44% and 149.81 ± 47.00% and 133.16 ± 33.21%
same,"60% load RMS VLA, post-hoc Bonferroni comparison",[8],significant differences between PLA and LID
same,60% load RMS VM,[8],131.17 ± 29.13% and 120.88 ± 31.08% and 117.18 ± 19.75% and 112.41 ± 42.15% and 133.87 ± 43.81% and 138.30 ± 47.06%
same,Isometric MDF VLA,[8],98.12 ± 9.79% and 99.07 ± 13.42% and 97.78 ± 9.79% and 100.39 ± 12.86%
same,Isometric MDF VM,[8],93.75 ± 11.10% and 91.04 ± 14.79% and 97.28 ± 13.72% and 101.88 ± 18.22%
same,Isometric RMS VLA,[8],99.88 ± 41.48% and 99.21 ± 50.39% and 126.91 ± 33.50% and 100.25 ± 25.60%
same,Isometric RMS VM,[8],120.01 ± 58.48% and 118.65 ± 41.54% and 113.38 ± 24.62% and 102.79 ± 32.43%
same,Training MDF VLA,[8],89.90 ± 10.21% and 90.47 ± 12.71% and 88.36 ± 11.03% and 89.99 ± 12.70% and 86.91 ± 9.27% and 89.91 ± 11.39%
same,Training MDF VM,[8],85.63 ± 11.87% and 91.01 ± 15.42% and 84.07 ± 11.93% and 90.42 ± 18.35% and 83.74 ± 9.68% and 90.58 ± 15.25%
same,Training RMS VLA,[8],123.84 ± 34.86% and 121.24 ± 36.40% and 146.42 ± 47.13% and 119.29 ± 38.40% and 135.14 ± 53.99% and 107.20 ± 42.77%
same,Training RMS VM,[8],128.39 ± 50.89% and 111.81 ± 31.90% and 132.39 ± 40.98% and 109.58 ± 36.84% and 138.04 ± 55.37% and 107.44 ± 35.96%
same,"training RMS VM, post-hoc Bonferroni comparison",[8],significant differences were found between HD and LID
same,"CMJ height post values, post-hoc Wilcoxon comparison",[9],significant differences
same,countermovement jump (CMJ) post and post 24 stages,[9],exhibited higher values
same,"percentage of change in CMJ from pre to post values, post-hoc analyses",[9],did not reach any significant difference
same,MIF,[10],"1,175.92 ± 370.86 N and 1,182.71 ± 429.84 N and 1,063.035 ± 265.86 N and 1,091.67 ± 331.61 N and 1,084.25 ± 375.82 N and 1,131.50 ± 420.02 N"
same,RFD0-50,[10],"2,765.42 ± 1,725.44 N · s^1 and 2,544.07 ± 1,150.29 N · s^1 and 2,335.85 ± 1,408.53 N · s^1 and 2,375.33 ± 1,172.75 N · s^1 and 2,006.35 ± 773.62 N · s^1 and 2,190.07 ± 1,249.61 N · s^1"
same,RFD0-100,[10],"2,921.42 ± 1,353.33 N · s^1 and 2,585.57 ± 1,998.95 N · s^1 and 2,320.43 ± 1,229.46 N · s^1 and 1,968.46 ± 1,373.43 N · s^1 and 2,129.25 ± 942.03 N · s^1 and 2,377.32 ± 1,196.68 N · s^1"
same,RFD0-150,[10],"2,958.42 ± 1,280.93 N · s^1 and 2,635.67 ± 1,075.21 N · s^1 and 2,388.16 ± 1,184.60 N · s^1 and 2,129.54 ± 1,279.24 N · s^1 and 2,260.47 ± 1,032.89 N · s^1 and 2,450.52 ± 1,275.39 N · s^1"
same,RFD0-200,[10],"2,697.29 ± 1,219.14 N · s^1 and 2,456.98 ± 1,052.11 N · s^1 and 2,178.30 ± 1,101.08 N · s^1 and 1,973.26 ± 1,214.84 N · s^1 and 2,067.32 ± 978.09 N · s^1 and 2,361.75 ± 1,214.58 N · s^1"
same,RFD0-400,[10],"1,764.86 ± 898.55 N · s^1 and 1,784.80 ± 809.39 N · s^1 and 1,489.55 ± 733.99 N · s^1 and 1,521.34 ± 853.94 N · s^1 and 1,610.34 ± 773.99 N · s^1 and 1,664.43 ± 912.04 N · s^1"
same,"isometric mechanical outcomes (MIF, RFD), two-way repeated measures ANOVAs",[10],no significant differences for any outcome
same,60% load MFP best,[11],950.82 ± 170.05 N and 945.34 ± 152.48 N and 907.38 ± 148.53 N and 903.85 ± 155.90 N and 930.60 ± 146.67 N and 936.27 ± 149.32 N
same,60% load MPP best,[11],822.00 ± 166.47 W and 810.71 ± 157.90 W and 688.32 ± 166.67 W and 698.67 ± 180.46 W and 796.70 ± 149.05 W and 798.56 ± 170.19 W
same,60% load MPV best,[11],0.93 ± 0.06 m/s and 0.80 ± 0.08 m/s and 0.81 ± 0.12 m/s and 0.93 ± 0.09 m/s and 0.91 ± 0.08 m/s
same,% VL (percentage of velocity loss during a set),[11],29.78 ± 10.90% and 26.62 ± 9.37% and 30.91 ± 10.24% and 26.65 ± 11.73% and 34.36 ± 12.15%
same,MFP mean,[11],974.60 ± 162.62 N and 962.14 ± 148.59 N and 950.75 ± 161.58 N and 942.66 ± 141.94 N and 941.04 ± 156.67 N and 931.41 ± 141.91 N
same,MPP Best,[11],770.42 ± 151.29 W and 744.70 ± 169.44 W and 694.45 ± 160.43 W and 701.32 ± 147.81 W and 681.99 ± 149.20 W and 683.86 ± 141.59 W
same,MPP mean,[11],626.70 ± 147.11 W and 612.99 ± 145.84 W and 559.89 ± 128.61 W and 583.27 ± 128.14 W and 539.99 ± 126.34 W and 548.46 ± 135.58 W
same,MPV best,[11],0.78 ± 0.05 m/s and 0.79 ± 0.06 m/s and 0.72 ± 0.07 m/s and 0.74 ± 0.07 m/s and 0.71 ± 0.07 m/s and 0.73 ± 0.05 m/s
same,MPV mean,[11],0.66 ± 0.07 m/s and 0.68 ± 0.07 m/s and 0.60 ± 0.07 m/s and 0.64 ± 0.08 m/s and 0.58 ± 0.08 m/s and 0.61 ± 0.08 m/s
same,"MPV of individual repetitions, post-hoc Bonferroni",[11],differences between HD and PLA in repetition 23; also recorded: HD and LD in repetitions 15 and 16
same,Total volume load,[11],"2,014.57 ± 380.94 kg"
